Assay results from the kinase profiling compilation of Christmann-Franck et al. (2016).

How the values were obtained:
Test in all cases: radiometric filter-binding kinase assay, Kinase HotSpot
Details in all cases: compound 0.5 µM; ATP 10 µM
[1] = biological target: MAPK13 (human) (UniProt O15264)
[2] = biological target: TBK1 (human) (UniProt Q9UHD2)
[3] = biological target: PRKD2 (human) (UniProt Q9BZL6)
[4] = biological target: INSR (human) (UniProt P06213)
[5] = biological target: CDK4 CCND1 (human) (UniProt P24385+P11802)
[6] = biological target: MARK4 (human) (UniProt Q96L34)
[7] = biological target: FGFR2 (human) (UniProt P21802)
[8] = biological target: BLK (human) (UniProt P51451)
[9] = biological target: CDK5 CDK5R1 p35 (human) (UniProt Q00535+Q15078)
[10] = biological target: BTK (human) (UniProt Q06187)
BTK (human), sequence (Q06187 whole entry, looked up): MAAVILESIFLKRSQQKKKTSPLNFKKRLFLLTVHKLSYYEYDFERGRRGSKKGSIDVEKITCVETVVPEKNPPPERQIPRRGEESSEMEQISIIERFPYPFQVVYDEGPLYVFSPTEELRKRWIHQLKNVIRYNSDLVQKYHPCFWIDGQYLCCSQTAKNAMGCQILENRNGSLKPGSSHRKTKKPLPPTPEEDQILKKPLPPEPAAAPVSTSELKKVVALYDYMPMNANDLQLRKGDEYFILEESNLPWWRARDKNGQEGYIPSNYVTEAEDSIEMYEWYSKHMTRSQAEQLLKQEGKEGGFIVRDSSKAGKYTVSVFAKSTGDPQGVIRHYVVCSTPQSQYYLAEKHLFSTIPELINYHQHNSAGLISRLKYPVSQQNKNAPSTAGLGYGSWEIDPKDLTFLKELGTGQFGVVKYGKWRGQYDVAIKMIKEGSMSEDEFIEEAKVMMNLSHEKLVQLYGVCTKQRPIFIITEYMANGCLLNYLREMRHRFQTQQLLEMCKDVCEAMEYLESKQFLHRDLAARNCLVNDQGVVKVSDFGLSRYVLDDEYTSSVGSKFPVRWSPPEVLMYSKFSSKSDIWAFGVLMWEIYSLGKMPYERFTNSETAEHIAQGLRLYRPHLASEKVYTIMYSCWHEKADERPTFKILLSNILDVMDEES

[11] = biological target: EPHA7 (human) (UniProt Q15375)
[12] = biological target: MKNK2 (human) (UniProt Q9HBH9)
[13] = biological target: SRPK3 (human) (UniProt Q9UPE1)
SRPK3 (human), sequence (Q9UPE1 whole entry, looked up): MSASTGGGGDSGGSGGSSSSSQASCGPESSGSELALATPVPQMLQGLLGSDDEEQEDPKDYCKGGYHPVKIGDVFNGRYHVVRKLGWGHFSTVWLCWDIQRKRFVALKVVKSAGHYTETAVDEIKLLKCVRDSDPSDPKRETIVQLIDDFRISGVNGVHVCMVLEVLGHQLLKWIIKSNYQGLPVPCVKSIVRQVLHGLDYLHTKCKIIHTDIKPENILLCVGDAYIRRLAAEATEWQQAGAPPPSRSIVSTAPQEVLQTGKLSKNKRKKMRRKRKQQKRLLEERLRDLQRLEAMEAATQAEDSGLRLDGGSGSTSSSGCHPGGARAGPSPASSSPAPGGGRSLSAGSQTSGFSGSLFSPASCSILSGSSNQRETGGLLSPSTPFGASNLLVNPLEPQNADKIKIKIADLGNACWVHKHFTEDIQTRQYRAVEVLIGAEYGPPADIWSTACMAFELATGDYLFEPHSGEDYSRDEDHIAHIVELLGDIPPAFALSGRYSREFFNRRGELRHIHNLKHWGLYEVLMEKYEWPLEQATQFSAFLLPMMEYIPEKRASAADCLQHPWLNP

[14] = biological target: GSK3B (human) (UniProt P49841)
[15] = biological target: MST4 (human) (UniProt Q9P289)
[16] = biological target: CDK4 CCND3 (human) (UniProt P30281+P11802)
[17] = biological target: FYN (human) (UniProt P06241)
[18] = biological target: CDK7 CCNH MNAT1 (human) (UniProt P50613+P51948+P51946)
[19] = biological target: AXL (human) (UniProt P30530)
[20] = biological target: EPHA5 (human) (UniProt P54756)
[21] = biological target: SIK2 (human) (UniProt Q9H0K1)
[22] = biological target: CSNK1D (human) (UniProt P48730)
[23] = biological target: TSSK2 (human) (UniProt Q96PF2)
TSSK2 (human), sequence (Q96PF2 whole entry, looked up): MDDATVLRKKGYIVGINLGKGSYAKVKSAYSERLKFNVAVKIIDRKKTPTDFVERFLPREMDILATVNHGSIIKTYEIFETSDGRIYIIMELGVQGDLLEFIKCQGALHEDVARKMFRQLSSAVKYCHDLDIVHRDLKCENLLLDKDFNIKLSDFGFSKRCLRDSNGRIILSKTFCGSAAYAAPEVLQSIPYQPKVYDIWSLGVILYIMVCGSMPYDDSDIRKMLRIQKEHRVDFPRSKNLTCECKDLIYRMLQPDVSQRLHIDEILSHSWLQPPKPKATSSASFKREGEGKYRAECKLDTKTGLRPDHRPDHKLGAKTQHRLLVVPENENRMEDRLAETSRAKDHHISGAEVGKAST

[24] = biological target: DCLK2 (human) (UniProt Q8N568)
[25] = biological target: PLK1 (human) (UniProt P53350)
PLK1 (human), sequence (P53350 whole entry, looked up): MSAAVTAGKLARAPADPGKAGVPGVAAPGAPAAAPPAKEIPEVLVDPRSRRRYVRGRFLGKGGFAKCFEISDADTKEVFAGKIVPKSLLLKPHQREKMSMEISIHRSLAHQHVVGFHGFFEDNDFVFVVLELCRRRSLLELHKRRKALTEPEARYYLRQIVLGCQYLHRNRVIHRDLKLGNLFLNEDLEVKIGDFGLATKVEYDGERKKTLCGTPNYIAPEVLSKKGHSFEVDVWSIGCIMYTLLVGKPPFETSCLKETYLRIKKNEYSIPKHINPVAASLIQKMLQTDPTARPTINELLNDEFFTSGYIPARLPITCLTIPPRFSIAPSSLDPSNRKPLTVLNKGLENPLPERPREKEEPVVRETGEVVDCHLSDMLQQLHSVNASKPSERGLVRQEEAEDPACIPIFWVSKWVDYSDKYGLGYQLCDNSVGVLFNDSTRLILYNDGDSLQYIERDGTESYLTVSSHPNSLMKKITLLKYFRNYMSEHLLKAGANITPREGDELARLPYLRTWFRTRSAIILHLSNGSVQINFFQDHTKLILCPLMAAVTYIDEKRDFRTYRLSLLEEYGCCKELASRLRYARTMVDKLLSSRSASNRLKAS

[26] = biological target: NEK9 (human) (UniProt Q8TD19)
[27] = biological target: PRKCD (human) (UniProt Q05655)
PRKCD (human), sequence (Q05655 whole entry, looked up): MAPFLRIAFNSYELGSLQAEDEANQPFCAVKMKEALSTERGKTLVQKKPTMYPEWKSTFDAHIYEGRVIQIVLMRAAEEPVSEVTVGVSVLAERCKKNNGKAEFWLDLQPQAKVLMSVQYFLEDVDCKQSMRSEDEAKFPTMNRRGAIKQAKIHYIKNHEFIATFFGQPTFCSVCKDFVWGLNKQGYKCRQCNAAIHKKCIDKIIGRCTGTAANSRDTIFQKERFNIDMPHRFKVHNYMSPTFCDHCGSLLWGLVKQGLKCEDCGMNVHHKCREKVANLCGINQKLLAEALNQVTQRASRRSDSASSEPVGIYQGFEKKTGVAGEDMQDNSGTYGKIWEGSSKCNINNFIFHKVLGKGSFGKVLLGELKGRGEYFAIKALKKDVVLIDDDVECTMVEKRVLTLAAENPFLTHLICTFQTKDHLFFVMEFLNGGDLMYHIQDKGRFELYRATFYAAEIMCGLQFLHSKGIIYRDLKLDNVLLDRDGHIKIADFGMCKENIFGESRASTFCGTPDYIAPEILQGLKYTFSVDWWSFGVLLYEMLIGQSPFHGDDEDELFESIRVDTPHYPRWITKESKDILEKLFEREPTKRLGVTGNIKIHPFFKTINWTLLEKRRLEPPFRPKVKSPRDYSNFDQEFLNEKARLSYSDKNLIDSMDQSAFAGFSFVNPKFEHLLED

[28] = biological target: IKBKB (human) (UniProt O14920)
[29] = biological target: FES (human) (UniProt P07332)
[30] = biological target: STK17A (human) (UniProt Q9UEE5)
[31] = biological target: GRK7 (human) (UniProt Q8WTQ7)
[32] = biological target: STK25 (human) (UniProt O00506)
[33] = biological target: AKT1 (human) (UniProt P31749)
[34] = biological target: HIPK1 (human) (UniProt Q86Z02)
[35] = biological target: PLK2 (human) (UniProt Q9NYY3)
[36] = biological target: SGK3 (human) (UniProt Q96BR1)
[37] = biological target: SRPK1 (human) (UniProt Q96SB4)
SRPK1 (human), sequence (Q96SB4 whole entry, looked up): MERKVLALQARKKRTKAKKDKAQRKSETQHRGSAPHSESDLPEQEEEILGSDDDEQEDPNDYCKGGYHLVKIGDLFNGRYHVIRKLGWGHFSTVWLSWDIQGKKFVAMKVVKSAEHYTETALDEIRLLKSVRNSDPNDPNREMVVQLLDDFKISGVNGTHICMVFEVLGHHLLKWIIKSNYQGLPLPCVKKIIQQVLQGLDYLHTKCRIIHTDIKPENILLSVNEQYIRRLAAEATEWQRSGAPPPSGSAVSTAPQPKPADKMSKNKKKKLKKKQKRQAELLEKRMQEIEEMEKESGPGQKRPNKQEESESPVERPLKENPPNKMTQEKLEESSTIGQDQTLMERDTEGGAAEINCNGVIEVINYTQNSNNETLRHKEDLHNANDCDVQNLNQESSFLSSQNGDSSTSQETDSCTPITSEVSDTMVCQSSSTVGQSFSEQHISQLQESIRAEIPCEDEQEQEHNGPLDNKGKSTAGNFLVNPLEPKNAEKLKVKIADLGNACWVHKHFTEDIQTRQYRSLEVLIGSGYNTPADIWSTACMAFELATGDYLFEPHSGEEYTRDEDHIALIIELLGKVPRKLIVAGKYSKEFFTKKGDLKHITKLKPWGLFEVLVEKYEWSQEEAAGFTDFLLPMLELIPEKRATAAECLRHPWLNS

[38] = biological target: DAPK3 (human) (UniProt O43293)
[39] = biological target: RPS6KB1 (human) (UniProt P23443)
[40] = biological target: MAPK11 (human) (UniProt Q15759)
[41] = biological target: DDR2 (human) (UniProt Q16832)
[42] = biological target: PAK6 (human) (UniProt Q9NQU5)

INSR (human), sequence (P06213 whole entry, looked up): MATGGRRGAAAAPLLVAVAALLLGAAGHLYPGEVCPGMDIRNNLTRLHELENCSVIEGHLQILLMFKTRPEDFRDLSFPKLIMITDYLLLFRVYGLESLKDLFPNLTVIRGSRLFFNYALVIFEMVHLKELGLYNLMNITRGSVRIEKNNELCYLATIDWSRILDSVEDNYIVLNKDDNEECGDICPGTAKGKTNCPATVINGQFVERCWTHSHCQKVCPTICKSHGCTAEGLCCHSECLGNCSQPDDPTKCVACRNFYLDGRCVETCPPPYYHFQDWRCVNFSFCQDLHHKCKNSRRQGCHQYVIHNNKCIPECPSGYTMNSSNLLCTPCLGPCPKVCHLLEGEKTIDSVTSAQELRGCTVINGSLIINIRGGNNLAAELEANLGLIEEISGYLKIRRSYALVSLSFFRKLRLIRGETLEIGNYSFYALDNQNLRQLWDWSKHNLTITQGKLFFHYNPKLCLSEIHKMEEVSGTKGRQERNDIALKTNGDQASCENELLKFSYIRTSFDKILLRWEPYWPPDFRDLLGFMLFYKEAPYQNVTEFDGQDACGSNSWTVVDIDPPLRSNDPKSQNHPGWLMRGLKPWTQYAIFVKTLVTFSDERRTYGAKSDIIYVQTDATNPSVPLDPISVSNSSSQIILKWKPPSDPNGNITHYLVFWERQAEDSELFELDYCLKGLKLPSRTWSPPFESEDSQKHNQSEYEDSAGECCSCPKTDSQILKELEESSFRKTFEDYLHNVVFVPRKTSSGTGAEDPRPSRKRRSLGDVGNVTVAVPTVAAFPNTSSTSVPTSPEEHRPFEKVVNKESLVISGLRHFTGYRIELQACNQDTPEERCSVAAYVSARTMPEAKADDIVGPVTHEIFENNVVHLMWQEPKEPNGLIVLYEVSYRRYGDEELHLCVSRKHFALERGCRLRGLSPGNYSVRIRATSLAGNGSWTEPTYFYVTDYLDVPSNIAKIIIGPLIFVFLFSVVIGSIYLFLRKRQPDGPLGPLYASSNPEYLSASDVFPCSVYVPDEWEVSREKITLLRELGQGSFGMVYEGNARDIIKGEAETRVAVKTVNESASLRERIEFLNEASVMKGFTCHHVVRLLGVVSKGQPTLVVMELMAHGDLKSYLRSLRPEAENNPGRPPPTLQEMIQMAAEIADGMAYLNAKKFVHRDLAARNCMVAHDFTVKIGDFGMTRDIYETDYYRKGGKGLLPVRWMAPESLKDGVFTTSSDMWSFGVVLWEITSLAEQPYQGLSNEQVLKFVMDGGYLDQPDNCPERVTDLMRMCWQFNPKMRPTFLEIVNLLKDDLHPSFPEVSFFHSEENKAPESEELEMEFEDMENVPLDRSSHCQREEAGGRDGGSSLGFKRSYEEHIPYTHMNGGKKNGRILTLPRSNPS

For `COc1ccc(-c2cnc3c(-c4ccsc4)cnn3c2)cc1`, the residual activity [1] was 93.5%, the residual activity [2] was 77.7% and the residual activity [3] was 97.7%. The residual activity [4] was 92.5%, the residual activity [5] was 69.8% and the residual activity [6] was 92.7%. The residual activity [7] was 92.4%, the residual activity [8] was 83.5% and the residual activity [9] was 64.5%. For the same molecule, the residual activity [10] was 97.1%, the residual activity [11] was 91.1% and the residual activity [12] was 37.5%. For the same molecule, the residual activity [13] was 94.1%, the residual activity [14] was 99.4% and the residual activity [15] was 95.7%. The residual activity [16] was 82.9%, the residual activity [17] was 86.3% and the residual activity [18] was 100%. It also gave a residual activity [19] of 96.7%, a residual activity [20] of 89.1% and a residual activity [21] of 79.4%. The residual activity [22] was 83.6%, the residual activity [23] was 99% and the residual activity [24] was 97.5%. The residual activity [25] was 101%, the residual activity [26] was 90.3% and the residual activity [27] was 98.9%. It also gave a residual activity [28] of 99.6%, a residual activity [29] of 98.2% and a residual activity [30] of 91.6%. For the same molecule, the residual activity [31] was 99.9%, the residual activity [32] was 102% and the residual activity [33] was 92.4%. The residual activity [34] was 99.8%, the residual activity [35] was 100% and the residual activity [36] was 99.6%. It also gave a residual activity [37] of 101%, a residual activity [38] of 81.9% and a residual activity [39] of 92.1%. The residual activity [40] was 84.1% and the residual activity [41] was 98.2%.

Work on `COc1cc2ncnc(Nc3ccc(F)c(Cl)c3)c2cc1OCCCN1CCOCC1` yielded a residual activity [1] of 94.7%, a residual activity [2] of 83.1% and a residual activity [4] of 107%. The residual activity [5] was 94.3%, the residual activity [6] was 94.2% and the residual activity [7] was 98.7%. For the same molecule, the residual activity [8] was 87.7%, the residual activity [9] was 103% and the residual activity [10] was 60.6%. For the same molecule, the residual activity [11] was 74.3%, the residual activity [12] was 54.1% and the residual activity [13] was 103%. It also gave a residual activity [14] of 100%, a residual activity [15] of 106% and a residual activity [16] of 101%. The residual activity [17] was 92.2%, the residual activity [18] was 105% and the residual activity [19] was 88.8%. The residual activity [20] was 95.8%, the residual activity [21] was 49.3% and the residual activity [22] was 90.4%. It also gave a residual activity [23] of 91.5%, a residual activity [24] of 101% and a residual activity [25] of 97%. It also gave a residual activity [26] of 99.3%, a residual activity [27] of 106% and a residual activity [28] of 86.5%. It also gave a residual activity [30] of 96%, a residual activity [31] of 96.2% and a residual activity [32] of 97.4%. It also gave a residual activity [33] of 94.1%, a residual activity [34] of 97.6% and a residual activity [35] of 100%. It also gave a residual activity [36] of 98.3%, a residual activity [37] of 98.3% and a residual activity [38] of 95.7%. It also gave a residual activity [39] of 93.9%, a residual activity [42] of 105% and a residual activity [40] of 95.1%. For the same molecule, the residual activity [41] was 117%.

`CS(=O)c1ccc(-c2nc(-c3ccc(F)cc3)c(-c3ccncc3)[nH]2)cc1` (configuration not stated) was tested, and the residual activity [1] was 106%, the residual activity [2] was 99.7% and the residual activity [4] was 88.9%. For the same molecule, the residual activity [5] was 105%, the residual activity [6] was 98.5% and the residual activity [7] was 103%. The residual activity [8] was 102%, the residual activity [9] was 97.3% and the residual activity [10] was 97.2%. The residual activity [11] was 83.1%, the residual activity [12] was 94.4% and the residual activity [13] was 99.4%. For the same molecule, the residual activity [14] was 80.2%, the residual activity [15] was 96.8% and the residual activity [16] was 105%. The residual activity [17] was 89.8%, the residual activity [18] was 96.8% and the residual activity [19] was 101%. It also gave a residual activity [20] of 89.5%, a residual activity [21] of 82.1% and a residual activity [22] of 13.9%. It also gave a residual activity [23] of 95.7%, a residual activity [24] of 99.8% and a residual activity [25] of 100%. It also gave a residual activity [26] of 99.1%, a residual activity [27] of 107% and a residual activity [28] of 106%. The residual activity [29] was 97.3%, the residual activity [30] was 98.9% and the residual activity [31] was 107%. For the same molecule, the residual activity [32] was 111%, the residual activity [33] was 102% and the residual activity [34] was 104%. For the same molecule, the residual activity [35] was 95.6%, the residual activity [36] was 101% and the residual activity [37] was 99.5%. For the same molecule, the residual activity [38] was 95.5%, the residual activity [39] was 97.4% and the residual activity [42] was 76.7%. For the same molecule, the residual activity [40] was 68.9% and the residual activity [41] was 103%.
